Data reported in PMC7979488 (ChemMedChem, 2020).
Read-outs that look alike come from different tables or passages of the source.

How the values were obtained:
SARS-CoV-2 [1] = type: cell-based
SARS-CoV-2 [2] = type: cell-based; settings: A549/ACE2 cells
[3] = Vero E6 cells, tested range 80 nM to 10 μM, two repeats

O=C[C@H](C[C@@H]1CCNC1=O)NC(=O)[C@H](CC1CCCCC1)NC(=O)c1cc2ccccc2[nH]1 [11a, reference compound]
concentration at which SARS-CoV-2-induced CPE was completely abolished (SARS-CoV-2 [1]; [3]): 10 µM

O=C[C@H](C[C@@H]1CCNC1=O)NC(=O)[C@H](Cc1ccccc1)NC(=O)/C=C/c1ccc(Cl)cc1F [MPI2]
concentration at which SARS-CoV-2-induced CPE was completely abolished (SARS-CoV-2 [1]; [3]): 10 µM

CC(C)C[C@H](NC(=O)[C@@H](NC(=O)OCc1ccccc1)C(C)C)C(=O)N[C@H](C=O)C[C@@H]1CCNC1=O [MPI3]
complete prevention of CPE (in words) (SARS-CoV-2 [1]; Vero E6 cells, tested range 80 nM to 10 μM): not able to completely prevent CPE at all tested concentrations

CC(C)[C@H](NC(=O)OCc1ccccc1)C(=O)N[C@@H](CC1CCCCC1)C(=O)N[C@H](C=O)C[C@@H]1CCNC1=O [MPI5]
concentration for complete prevention of SARS-CoV-2-induced CPE (SARS-CoV-2 [2]; as stated in abstract): 0.16 to 0.31 µM
concentration for complete abolition of CPE (SARS-CoV-2 [2]; tested range 80 nM to 10 μM): 160 to 310 nM
concentration at which SARS-CoV-2-induced CPE was completely abolished (SARS-CoV-2 [1]; [3]): 5 µM

CC(OC(C)(C)C)[C@H](NC(=O)OCc1ccccc1)C(=O)N[C@@H](Cc1ccccc1)C(=O)N[C@H](C=O)C[C@@H]1CCNC1=O (stereo partly drawn) [MPI7]
complete abolition of CPE / potency (in words) (SARS-CoV-2 [2]; tested range 80 nM to 10 μM): not able to completely abolish CPE at all tested conditions
concentration at which SARS-CoV-2-induced CPE was completely abolished (SARS-CoV-2 [1]; [3]): 2.5 to 5 µM

GC376 [reference compound]
concentration at which SARS-CoV-2-induced CPE was completely abolished (SARS-CoV-2 [1]): 10 µM
